Results taken from patent US20130209543A1, “ENHANCED TREATMENT REGIMENS USING MTOR INHIBITORS” (Intellikine LLC, priority 2011, published 2013).

Assays:
[1] = Additional study: grade 3 or greater treatment-emergent adverse events (Table 10); format: in vivo, human
[2] = Phase I clinical trial: plasma pharmacokinetics; format: in vivo, human; conditions: for AUC / Cmax: oral
Method: Adult patients with histologically confirmed advanced solid tumors were enrolled in a 3+3 dose escalation Phase I study evaluating 3 intermittent schedules of administration for compound A: QW (once weekly), QD×3d QW (3 days on 4 days off), and QD×5d QW (5 days on 2 days off), in comparison with daily dosing (QD). Safety, maximum tolerated dose (MTD), pharmacokinetics (PK) and preliminary antitumor activity were evaluated.

For CC(C)n1nc(-c2ccc3oc(N)nc3c2)c2c(N)ncnc21 [compound A], the “Anaemia, grade 3 or greater TEAE” value ([1]; Total (N = 91)) was 6 (7%), the “Aspartate aminotransferase increase, grade 3 or greater TEAE” value (“Aspartate aminotransferase increase” below) ([1]; Total (N = 91)) was 2 (2%) and the “Asthenia, grade 3 or greater TEAE” value ([1]; Total (N = 91)) was 4 (4%). For the same compound, the “Blood creatinine increase, grade 3 or greater TEAE” value (“Blood creatinine increase” for short) ([1]; Total (N = 91)) was 2 (2%), the “Deep vein thrombosis, grade 3 or greater TEAE” value (“Deep vein thrombosis” below) ([1]; Total (N = 91)) was 2 (2%) and the “Diarrhoea, grade 3 or greater TEAE” value ([1]; Total (N = 91)) was 3 (3%). The “Disease progression, grade 3 or greater TEAE” value (from here on “Disease progression”) ([1]; Total (N = 91)) was 2 (2%), the “Fatigue, grade 3 or greater TEAE” value ([1]; Total (N = 91)) was 3 (3%) and the “Gamma-glutamyltransferase increase, grade 3 or greater TEAE” value (from here on “Gamma-glutamyltransferase increase”) ([1]; Total (N = 91)) was 3 (3%). The “Hyperglycaemia, grade 3 or greater TEAE” value ([1]; Total (N = 91)) was 9 (10%), the “Hypokalaemia, grade 3 or greater TEAE” value ([1]; Total (N = 91)) was 3 (3%) and the “Hyponatraemia, grade 3 or greater TEAE” value ([1]; Total (N = 91)) was 2 (2%). For the same compound, the “Hypophsphataemia, grade 3 or greater TEAE” value ([1]; Total (N = 91)) was 5 (5%), the “Lymphopenia, grade 3 or greater TEAE” value ([1]; Total (N = 91)) was 6 (7%) and the “Mucosal Inflammation, grade 3 or greater TEAE” value (“Mucosal Inflammation” for short) ([1]; Total (N = 91)) was 7 (8%). For the same compound, the “Muscular weakness, grade 3 or greater TEAE” value (shortened to “Muscular weakness”) ([1]; Total (N = 91)) was 2 (2%), the “Nausea, grade 3 or greater TEAE” value ([1]; Total (N = 91)) was 2 (2%) and the “Neutropenia, grade 3 or greater TEAE” value ([1]; Total (N = 91)) was 2 (2%). The “Pruritus, grade 3 or greater TEAE” value ([1]; Total (N = 91)) was 3 (3%), the “Rash, grade 3 or greater TEAE” value ([1]; Total (N = 91)) was 9 (10%) and the “Thrombocytopenia, grade 3 or greater TEAE” value ([1]; Total (N = 91)) was 2 (2%). The “Vomiting, grade 3 or greater TEAE” value ([1]; Total (N = 91)) was 3 (3%), the “Anaemia, grade 3 or greater TEAE” value ([1]; Total QD Dosing (N = 29)) was 1 (3%) and the “Aspartate aminotransferase increase” value ([1]; Total QD Dosing (N = 29)) was 0 (0%). The “Asthenia, grade 3 or greater TEAE” value ([1]; Total QD Dosing (N = 29)) was 1 (3%), the “Blood creatinine increase” value ([1]; Total QD Dosing (N = 29)) was 0 (0%) and the “Deep vein thrombosis” value ([1]; Total QD Dosing (N = 29)) was 0 (0%). The “Diarrhoea, grade 3 or greater TEAE” value ([1]; Total QD Dosing (N = 29)) was 1 (3%), the “Disease progression” value ([1]; Total QD Dosing (N = 29)) was 0 (0%) and the “Fatigue, grade 3 or greater TEAE” value ([1]; Total QD Dosing (N = 29)) was 0 (0%). The “Gamma-glutamyltransferase increase” value ([1]; Total QD Dosing (N = 29)) was 0 (0%), the “Hyperglycaemia, grade 3 or greater TEAE” value ([1]; Total QD Dosing (N = 29)) was 4 (14%) and the “Hypokalaemia, grade 3 or greater TEAE” value ([1]; Total QD Dosing (N = 29)) was 2 (7%). For the same compound, the “Hyponatraemia, grade 3 or greater TEAE” value ([1]; Total QD Dosing (N = 29)) was 2 (7%), the “Hypophsphataemia, grade 3 or greater TEAE” value ([1]; Total QD Dosing (N = 29)) was 0 (0%) and the “Lymphopenia, grade 3 or greater TEAE” value ([1]; Total QD Dosing (N = 29)) was 2 (7%). The “Mucosal Inflammation” value ([1]; Total QD Dosing (N = 29)) was 0 (0%), the “Muscular weakness” value ([1]; Total QD Dosing (N = 29)) was 0 (0%) and the “Nausea, grade 3 or greater TEAE” value ([1]; Total QD Dosing (N = 29)) was 0 (0%). The “Neutropenia, grade 3 or greater TEAE” value ([1]; Total QD Dosing (N = 29)) was 0 (0%), the “Pruritus, grade 3 or greater TEAE” value ([1]; Total QD Dosing (N = 29)) was 2 (7%) and the “Rash, grade 3 or greater TEAE” value ([1]; Total QD Dosing (N = 29)) was 7 (24%). For the same compound, the “Thrombocytopenia, grade 3 or greater TEAE” value ([1]; Total QD Dosing (N = 29)) was 2 (7%), the “Vomiting, grade 3 or greater TEAE” value ([1]; Total QD Dosing (N = 29)) was 0 (0%) and the “Anaemia, grade 3 or greater TEAE” value ([1]; Total QDx3d QW (N = 25)) was 2 (8%). For the same compound, the “Aspartate aminotransferase increase” value ([1]; Total QDx3d QW (N = 25)) was 0 (0%), the “Asthenia, grade 3 or greater TEAE” value ([1]; Total QDx3d QW (N = 25)) was 1 (4%) and the “Blood creatinine increase” value ([1]; Total QDx3d QW (N = 25)) was 2 (8%). The “Deep vein thrombosis” value ([1]; Total QDx3d QW (N = 25)) was 1 (4%), the “Diarrhoea, grade 3 or greater TEAE” value ([1]; Total QDx3d QW (N = 25)) was 1 (4%) and the “Disease progression” value ([1]; Total QDx3d QW (N = 25)) was 0 (0%). For the same compound, the “Fatigue, grade 3 or greater TEAE” value ([1]; Total QDx3d QW (N = 25)) was 0 (0%), the “Gamma-glutamyltransferase increase” value ([1]; Total QDx3d QW (N = 25)) was 1 (4%) and the “Hyperglycaemia, grade 3 or greater TEAE” value ([1]; Total QDx3d QW (N = 25)) was 4 (16%). The “Hypokalaemia, grade 3 or greater TEAE” value ([1]; Total QDx3d QW (N = 25)) was 0 (0%), the “Hyponatraemia, grade 3 or greater TEAE” value ([1]; Total QDx3d QW (N = 25)) was 0 (0%) and the “Hypophsphataemia, grade 3 or greater TEAE” value ([1]; Total QDx3d QW (N = 25)) was 3 (12%). The “Lymphopenia, grade 3 or greater TEAE” value ([1]; Total QDx3d QW (N = 25)) was 2 (8%), the “Mucosal Inflammation” value ([1]; Total QDx3d QW (N = 25)) was 4 (16%) and the “Muscular weakness” value ([1]; Total QDx3d QW (N = 25)) was 1 (4%). For the same compound, the “Nausea, grade 3 or greater TEAE” value ([1]; Total QDx3d QW (N = 25)) was 1 (4%), the “Neutropenia, grade 3 or greater TEAE” value ([1]; Total QDx3d QW (N = 25)) was 0 (0%) and the “Pruritus, grade 3 or greater TEAE” value ([1]; Total QDx3d QW (N = 25)) was 1 (4%). The “Rash, grade 3 or greater TEAE” value ([1]; Total QDx3d QW (N = 25)) was 1 (4%), the “Thrombocytopenia, grade 3 or greater TEAE” value ([1]; Total QDx3d QW (N = 25)) was 0 (0%) and the “Vomiting, grade 3 or greater TEAE” value ([1]; Total QDx3d QW (N = 25)) was 1 (4%). For the same compound, the “Anaemia, grade 3 or greater TEAE” value ([1]; Total QDx5d QW (N = 15)) was 1 (7%), the “Aspartate aminotransferase increase” value ([1]; Total QDx5d QW (N = 15)) was 1 (7%) and the “Asthenia, grade 3 or greater TEAE” value ([1]; Total QDx5d QW (N = 15)) was 1 (7%). For the same compound, the “Blood creatinine increase” value ([1]; Total QDx5d QW (N = 15)) was 0 (0%), the “Deep vein thrombosis” value ([1]; Total QDx5d QW (N = 15)) was 0 (0%) and the “Diarrhoea, grade 3 or greater TEAE” value ([1]; Total QDx5d QW (N = 15)) was 0 (0%). The “Disease progression” value ([1]; Total QDx5d QW (N = 15)) was 0 (0%), the “Fatigue, grade 3 or greater TEAE” value ([1]; Total QDx5d QW (N = 15)) was 2 (13%) and the “Gamma-glutamyltransferase increase” value ([1]; Total QDx5d QW (N = 15)) was 1 (7%). The “Hyperglycaemia, grade 3 or greater TEAE” value ([1]; Total QDx5d QW (N = 15)) was 1 (7%), the “Hypokalaemia, grade 3 or greater TEAE” value ([1]; Total QDx5d QW (N = 15)) was 0 (0%) and the “Hyponatraemia, grade 3 or greater TEAE” value ([1]; Total QDx5d QW (N = 15)) was 0 (0%). The “Hypophsphataemia, grade 3 or greater TEAE” value ([1]; Total QDx5d QW (N = 15)) was 2 (13%), the “Lymphopenia, grade 3 or greater TEAE” value ([1]; Total QDx5d QW (N = 15)) was 1 (7%) and the “Mucosal Inflammation” value ([1]; Total QDx5d QW (N = 15)) was 3 (20%). The “Muscular weakness” value ([1]; Total QDx5d QW (N = 15)) was 0 (0%), the “Nausea, grade 3 or greater TEAE” value ([1]; Total QDx5d QW (N = 15)) was 1 (7%) and the “Neutropenia, grade 3 or greater TEAE” value ([1]; Total QDx5d QW (N = 15)) was 1 (7%). For the same compound, the “Pruritus, grade 3 or greater TEAE” value ([1]; Total QDx5d QW (N = 15)) was 0 (0%), the “Rash, grade 3 or greater TEAE” value ([1]; Total QDx5d QW (N = 15)) was 1 (7%) and the “Thrombocytopenia, grade 3 or greater TEAE” value ([1]; Total QDx5d QW (N = 15)) was 0 (0%). The “Vomiting, grade 3 or greater TEAE” value ([1]; Total QDx5d QW (N = 15)) was 1 (7%), the “Anaemia, grade 3 or greater TEAE” value ([1]; Total QW Dosing (N = 22)) was 2 (9%) and the “Aspartate aminotransferase increase” value ([1]; Total QW Dosing (N = 22)) was 1 (5%). For the same compound, the “Asthenia, grade 3 or greater TEAE” value ([1]; Total QW Dosing (N = 22)) was 1 (5%), the “Blood creatinine increase” value ([1]; Total QW Dosing (N = 22)) was 0 (0%) and the “Deep vein thrombosis” value ([1]; Total QW Dosing (N = 22)) was 1 (5%). For the same compound, the “Diarrhoea, grade 3 or greater TEAE” value ([1]; Total QW Dosing (N = 22)) was 1 (5%), the “Disease progression” value ([1]; Total QW Dosing (N = 22)) was 2 (9%) and the “Fatigue, grade 3 or greater TEAE” value ([1]; Total QW Dosing (N = 22)) was 1 (5%). The “Gamma-glutamyltransferase increase” value ([1]; Total QW Dosing (N = 22)) was 1 (5%), the “Hyperglycaemia, grade 3 or greater TEAE” value ([1]; Total QW Dosing (N = 22)) was 0 (0%) and the “Hypokalaemia, grade 3 or greater TEAE” value ([1]; Total QW Dosing (N = 22)) was 1 (5%). For the same compound, the “Hyponatraemia, grade 3 or greater TEAE” value ([1]; Total QW Dosing (N = 22)) was 0 (0%), the “Hypophsphataemia, grade 3 or greater TEAE” value ([1]; Total QW Dosing (N = 22)) was 0 (0%) and the “Lymphopenia, grade 3 or greater TEAE” value ([1]; Total QW Dosing (N = 22)) was 1 (5%). For the same compound, the “Mucosal Inflammation” value ([1]; Total QW Dosing (N = 22)) was 0 (0%), the “Muscular weakness” value ([1]; Total QW Dosing (N = 22)) was 1 (5%) and the “Nausea, grade 3 or greater TEAE” value ([1]; Total QW Dosing (N = 22)) was 0 (0%). For the same compound, the “Neutropenia, grade 3 or greater TEAE” value ([1]; Total QW Dosing (N = 22)) was 1 (5%), the “Pruritus, grade 3 or greater TEAE” value ([1]; Total QW Dosing (N = 22)) was 0 (0%) and the “Rash, grade 3 or greater TEAE” value ([1]; Total QW Dosing (N = 22)) was 0 (0%). The “Thrombocytopenia, grade 3 or greater TEAE” value ([1]; Total QW Dosing (N = 22)) was 0 (0%), the “Vomiting, grade 3 or greater TEAE” value ([1]; Total QW Dosing (N = 22)) was 1 (5%) and the AUC ([2]; human, plasma, 6 mg QD) was 8 µM·h. For the same compound, the Cmax ([2]; human, plasma, 6 mg QD) was 150 nM, the AUC ([2]; human, plasma, 10 mg Q5D) was 10 µM·h and the Cmax ([2]; human, plasma, 10 mg Q5D) was 250 nM. It also gave an AUC ([2]; human, plasma, 13 mg Q5D) of 13 µM·h, a Cmax ([2]; human, plasma, 13 mg Q5D) of 300 nM and an AUC ([2]; human, plasma, 16 mg Q3D) of 8 µM·h. For the same compound, the Cmax ([2]; human, plasma, 16 mg Q3D) was 350 nM, the AUC ([2]; human, plasma, 20 mg Q3D) was 10 µM·h and the Cmax ([2]; human, plasma, 20 mg Q3D) was 400 nM. It also gave an AUC ([2]; human, plasma, 30 mg QW) of 5 µM·h, a Cmax ([2]; human, plasma, 30 mg QW) of 600 nM and an AUC ([2]; human, plasma, 40 mg QW) of 6.5 µM·h. The Cmax ([2]; human, plasma, 40 mg QW) was 700 nM, the Tmax ([2]; human, plasma, oral doses, patients) was 0.5 to 4 h and the half-life ([2]; human, plasma, oral doses, patients, read-out: mean elimination plasma t1/2 (converted)) was 8 h. For the same compound, the “Plasma exposures (Cmax and AUC0-24) versus dose” value ([2]; oral doses) was “dose-linear plasma PK”.
